Where two headings read alike, the source gives them in different places.

Here are results for 20 molecules from patent US20080194024A1, “Culture of Non-Embryonic Cells at High Cell Density” (priority 2005, published 2008).

In one assay the test system is CDK1-cyclin B complex. The note with it: cited from earlier work; for IC50: values marked a: L. Meijer et al., unpublished.
The next assay has as its system GSK-3. As to conditions: study cited did not specify which isoform(s) was tested; value marked a: L. Meijer et al., unpublished; read-out: IC50 GSK-α and GSK-3β, isoform not specified; cited from earlier work.
A further assay deals with CDK2 and CDK5. As to conditions: printed in the CDK1-cyclin B column with note (CDK2 and CDK5); cited from earlier work.
Assay [1] deals with mouse embryonic stem (ES) cells. The note with it: substitutes for feeder cultures or exogenous cytokines; expression of Oct-3a, Rex-1 and Nanog; cited from earlier work.
For assay [2], the system named is Murine MAPCs. Kind of assay: MAPC culture with BIO, morphology (clustering). As to conditions: 0.1-2 microM BIO; from 4 days after treatment; at both cell densities. It counts as cell-based, mouse.
The subject of assay [3] is human embryonic stem (ES) cells. The note with it: substitutes for feeder cultures or exogenous cytokines; expression of Oct-3a, Rex-1 and Nanog; cited from earlier work.
In assay [4] the test system is Murine MAPCs. Kind of assay: Immunohistochemistry of MAPCs treated with BIO. It is filed as cell-based, mouse.
For assay [5], the system named is Murine MAPCs. Put plainly: Quantitative RT-PCR of MAPCs treated with BIO. It is filed as cell-based, mouse.
Assay [6] relates to GSK-3 (α/β) mixture of isoforms. The note with it: cited from earlier work.
A further assay addresses GSK-3β (Homo sapiens, UniProt P49841).
Assay [7] relates to mouse mesodermal stem cell line differentiated into a myoblastic lineage. As to conditions: Chen, S., et al. (2003); cited from earlier work.
The next assay has as its target GSK-3α (Homo sapiens, UniProt P49840). The note with it: cited from earlier work.
The mark [8] stands for this setting: MAPCs maintained at low density.
Where [9] appears, read: high concentration of BIO, MAPCs maintained at low density.
Setting [10] is: mixture of isoforms tested, values marked a: L. Meijer et al., unpublished.

GSK-3β, sequence (P49841 whole entry, species assumed): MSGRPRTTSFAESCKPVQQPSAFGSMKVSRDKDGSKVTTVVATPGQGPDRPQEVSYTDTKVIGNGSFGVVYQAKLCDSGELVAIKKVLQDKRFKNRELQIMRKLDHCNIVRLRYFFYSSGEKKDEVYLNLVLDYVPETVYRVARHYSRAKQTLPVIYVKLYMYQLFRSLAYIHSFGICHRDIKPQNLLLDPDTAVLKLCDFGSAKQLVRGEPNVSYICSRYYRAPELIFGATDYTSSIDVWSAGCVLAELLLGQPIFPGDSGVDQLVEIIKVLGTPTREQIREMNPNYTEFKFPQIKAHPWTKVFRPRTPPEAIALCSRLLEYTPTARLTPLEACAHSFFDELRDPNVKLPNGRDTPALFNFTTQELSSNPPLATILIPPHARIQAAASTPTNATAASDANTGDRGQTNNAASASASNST
GSK-3α, sequence (P49840 whole entry, species assumed): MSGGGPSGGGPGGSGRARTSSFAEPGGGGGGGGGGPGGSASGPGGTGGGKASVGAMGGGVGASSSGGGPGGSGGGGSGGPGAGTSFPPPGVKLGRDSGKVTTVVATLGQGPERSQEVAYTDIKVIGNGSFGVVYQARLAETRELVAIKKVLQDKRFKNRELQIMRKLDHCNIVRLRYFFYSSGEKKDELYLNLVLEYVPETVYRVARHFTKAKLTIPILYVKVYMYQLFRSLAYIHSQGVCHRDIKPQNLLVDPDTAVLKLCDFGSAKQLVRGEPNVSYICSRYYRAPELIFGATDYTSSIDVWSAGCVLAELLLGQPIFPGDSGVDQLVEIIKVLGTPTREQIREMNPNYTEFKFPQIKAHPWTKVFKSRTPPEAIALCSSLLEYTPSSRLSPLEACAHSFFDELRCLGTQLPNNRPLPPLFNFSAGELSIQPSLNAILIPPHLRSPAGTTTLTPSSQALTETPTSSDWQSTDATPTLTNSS

In general, IC50 refers to the midpoint of a concentration-inhibition curve. With `CC(=O)ON=C1C(=C2C(=O)Nc3cc(Br)ccc32)Nc2ccccc21` [6-Bromoindirubin-3′-acetoxime], the IC50 in the assay with CDK1-cyclin B complex is 63000 nM; in the assay on GSK-3, 10 nM.

Take `COc1ccc(CNC(=O)Nc2ncc([N+](=O)[O-])s2)cc1` [ARA014418]: the IC50 in the assay on CDK2 and CDK5 was over 100000 nM.

For `CCCCc1c(-c2ccc(O)cc2)[nH]c2nccnc12` [Aloisine A], in the assay on GSK-3, the concentration for half-maximal inhibition (IC50) is […].

Regarding `O=C1Cc2c([nH]c3ccc(Br)cc23)-c2ncccc2N1` [Azakenpaullone], the IC50 in the assay with CDK1-cyclin B complex is 2000 nM.

In the case of `O=C1Nc2cc(Br)ccc2/C1=C1/Nc2ccccc2/C1=N\O` [BIO, 6-bromoindirubin-3′-oxime], the “maintenance of undifferentiated pluripotent state, mouse ES cells” value in [1] is given as “maintaining the ES cultures in an undifferentiated pluripotent state”. Moreover, the “clustering of MAPC” value in the assay on Murine MAPCs [2] is listed as “dose-dependent clustering”. Moreover, the “maintenance of undifferentiated pluripotent state, human ES cells” value in assay [3] is “maintaining the ES cultures in an undifferentiated pluripotent state”. Besides, the “Oct-4, β-catenin and E-cadherin protein expression in large dense MAPC clusters” value with Murine MAPCs [4] (high density (ESC densities), 1 or 2 microM BIO) was “very high levels”. The “Oct-4, β-catenin and E-cadherin protein expression in clusters” value in the assay on Murine MAPCs [4] (low-density MAPCs, 2 microM BIO) was “highly expressed”. Moreover, in the assay with Murine MAPCs [5] (setting [8]), the “Oct-4 mRNA levels” value is “decreased in a BIO dose-dependent manner” and the “Rex-1 mRNA levels” value is “decreased in a BIO dose-dependent manner”. For the same molecule, in the assay on Murine MAPCs [5] (setting [9]), the AFP levels result was “higher levels of AFP” and the Sox1 levels entry was “higher levels”. Further, in the assay with Murine MAPCs [5] (low concentration of BIO, MAPCs maintained at low density), the “endothelial specific genes (for example, vWF) levels” value is given as “higher levels of endothelial specific genes”. Further, the “UTF1 or E-Ras expression” value with Murine MAPCs [5] (mRNA, Q-RT-PCR) is “did not affect”.

`[Be+2]` [Beryllium]: the “Effect on CDK1-cyclin B complex” value with CDK1-cyclin B complex is recorded as “Inhibits CDK1”. In addition, the IC50 in the assay with GSK-3 is 6000 nM.

As for `OCCCNc1cc(-c2ccnc(Nc3cccc(Cl)c3)n2)ccn1` [CGP60474], the IC50 in the assay on GSK-3 is 10 nM.

For the molecule `CN1CCN(c2cnc(NCCNc3ccc([N+](=O)[O-])c(N)n3)nc2-c2ccc(Cl)cc2Cl)C(=O)C1` [CT20026], the IC50 in [6] (setting [10]) is 4 nM.

As for `CN1CC[C@H](c2c(O)cc(O)c3c(=O)cc(-c4ccccc4Cl)oc23)[C@H](O)C1` [Flavopiridol], the IC50 in the assay with GSK-3 was 450 nM.

With `CN(C)CCCn1cc(C2=C(c3c[nH]c4ccccc34)C(=O)NC2=O)c2ccccc21` [GF109203x, bisindolyl-maleimide I], the IC50 is 2300 nM with CDK1-cyclin B complex and 190 nM at GSK-3β (β isoform tested; from Meijer, L. et al. (2004); read-out: IC50 GSK-3 (β); cited from earlier work).

Turning to `Cn1cc(C2=C(c3cn(CCCSC(=N)N)c4ccccc34)C(=O)NC2=O)c2ccccc21` [Ro318220, bisindolyl-maleimide IX], the IC50 at GSK-3β (read-out: IC50 GSK-3 (β); β isoform tested; from Meijer, L. et al. (2004); cited from earlier work) was 3 to 38 nM.

For `Cn1cc(C2=C(c3ccc(Cl)cc3Cl)C(=O)NC2=O)c2ccccc21` [SB216763], the IC50 with CDK1-cyclin B complex was 550 nM.

For the molecule `O=C1NC(=O)C(c2ccccc2[N+](=O)[O-])=C1Nc1ccc(O)c(Cl)c1` [SB415286], in the assay on CDK1-cyclin B complex, the IC50 is 900 nM.

Regarding `COc1ccc2c(c1)/C(=C/c1cnc[nH]1)C(=O)N2` [SU9516], in the assay on GSK-3, the IC50 is 330 nM.

Consider `Cn1sc(=O)n(Cc2ccccc2)c1=O` [TDZD8], for which the IC50 in [6] (setting [10]) is 7000 nM.

As for `Nc1cccc(-c2cc3c(Oc4cccc(O)c4)ncnc3[nH]2)c1` [TWS119], the IC50 at GSK-3β (read-out: IC50 GSK-3 (β); cited from earlier work) was 30 nM.

Consider `[Zn]` [Zinc], for which the “Effect on CDK1-cyclin B complex” value in the assay with CDK1-cyclin B complex is recorded as “No effect”. In the assay with GSK-3, the IC50 is 15000 nM.

As to `c1nc2nc(Nc3ccc(N4CCOCC4)cc3)nc(NC3CCCCC3)c2[nH]1` [reversine], the “effect on committed myoblast” value in assay [7] is “de-differentiate”.

On to Aloisine B, for which the IC50 in the assay on CDK1-cyclin B complex is 850 nM; in the assay on GSK-3, 750 nM.

With CHIR98014, the IC50 is 0.65 nM at GSK-3α, 3700 nM with CDK1-cyclin B complex and 0.58 nM in assay [6].
